Assays:
[1] = target: T1, 5-hydroxytryptamine receptor 1A (Homo sapiens, UniProt P08908); test: Binding affinity to 5HT1A receptor (unknown origin) assessed as inhibition constant by radioligand binding assay
T1 sequence (P08908 whole entry): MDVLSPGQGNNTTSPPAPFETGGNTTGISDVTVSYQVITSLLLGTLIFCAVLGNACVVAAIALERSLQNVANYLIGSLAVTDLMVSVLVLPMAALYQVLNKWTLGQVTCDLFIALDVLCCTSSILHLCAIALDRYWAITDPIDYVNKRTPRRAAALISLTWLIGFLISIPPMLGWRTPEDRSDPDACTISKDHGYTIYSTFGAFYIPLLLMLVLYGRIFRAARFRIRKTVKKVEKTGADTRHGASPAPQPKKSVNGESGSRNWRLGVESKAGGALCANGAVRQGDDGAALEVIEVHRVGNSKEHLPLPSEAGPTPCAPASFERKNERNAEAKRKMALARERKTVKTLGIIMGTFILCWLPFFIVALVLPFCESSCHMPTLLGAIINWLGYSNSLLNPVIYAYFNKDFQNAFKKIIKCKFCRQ

[2] = target: 5-hydroxytryptamine receptor 2A (Homo sapiens, UniProt P28223); test: Binding affinity to 5-HT2A receptor (unknown origin) assessed as inhibition constant by radioligand binding assay
Chain of 5-hydroxytryptamine receptor 2A (P28223 whole entry): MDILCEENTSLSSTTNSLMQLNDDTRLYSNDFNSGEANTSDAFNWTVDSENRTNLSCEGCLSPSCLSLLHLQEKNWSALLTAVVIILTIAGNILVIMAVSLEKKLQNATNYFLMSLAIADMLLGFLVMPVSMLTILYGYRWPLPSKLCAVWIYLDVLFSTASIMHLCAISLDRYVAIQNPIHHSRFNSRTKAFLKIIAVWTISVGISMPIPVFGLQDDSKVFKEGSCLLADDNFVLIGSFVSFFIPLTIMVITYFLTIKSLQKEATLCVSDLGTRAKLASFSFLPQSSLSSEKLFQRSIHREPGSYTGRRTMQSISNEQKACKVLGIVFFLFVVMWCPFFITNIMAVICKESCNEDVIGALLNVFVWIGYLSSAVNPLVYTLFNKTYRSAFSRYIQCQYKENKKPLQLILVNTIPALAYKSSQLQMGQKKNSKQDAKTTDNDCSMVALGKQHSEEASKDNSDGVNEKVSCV

| Structure (SMILES) | Ki [1] [µM] | Ki [2] [µM] |
| --- | --- | --- |
| CC(=O)Oc1cccc2[nH]cc(CCN(C)C)c12 | > 10 |  |
| CC(C)N(CCc1c(Br)[nH]c2ccccc12)C(C)C | > 10 | > 10 |
| CC(=O)Nc1cccc2[nH]cc(CCN(C)C)c12 | > 10 |  |
| CC(=O)Oc1cccc2[nH]c(Br)c(CCN(C)C)c12 | > 10 |  |
| CN(C)CCc1c(Cl)[nH]c2ccccc12 | > 10 |  |

Reference: ChEMBL document CHEMBL6109170, “Integrated Advancements in Neuroplasticity, Psychedelic Therapeutics, and AI-Driven Innovations for Precision Medicine” (ACS Med Chem Lett, 2025)
